Experimental data taken from US7718626B2, “ErbB3 binding protein compositions and methods of use” (University of Maryland, Baltimore, priority 2005, dated 2010).

Experiments:
Androgen Receptor (AR) = Androgen Receptor (AR) (Homo sapiens, UniProt P10275, T878A)
Method: Luciferase Reporter Assays: Vector control or ebp1-transfected LNCaP (5×10^4) cells were plated in twelve-well plates in complete media. When cells reached 50-60% confluence, they were transfected with 0.5 μg of MMTV-luc using the Fugene-6 reagent (Roche). Cells were also transfected with the RL-TK vector as an internal control. […] Luciferase activity was determined as previously described using a Dual-Luciferase kit (Promega, Madison, Wis.). The activities of renilla luciferase were used to normalize any variations in transfection efficiency. The promoter activities of each plasmid construct were calculated as the firefly-renilla luciferase activity ratios. All transfection experiments were carried out in triplicate wells and repeated three times.

LNCaP cells = assay: Growth in steroid-reduced medium with DHT and/or bicalutamide; assay type: cell-based, human; conditions: 10^−9 M DHT
Method: Cell Growth Assays: To measure growth in complete media, cells (2×10^4) were seeded in triplicate in individual wells of 12-well tissue culture plates in RPMI-1640 with 10% FBS and cultured for the indicated number of days. Cells were trypsinized, stained with Trypan Blue (0.4%), and counted in a hemacytometer. […] Colonies were counted after 10 days of incubation. For studies assessing the effect of dihydrotestosterone (DHT) on cell growth, cells (2×10^4) were plated in 12-well plates in complete media. After a 24-hour attachment period, the medium was replaced with steroid-free medium [phenol red-free RPMI 1640 and 5% charcoal-stripped FBS (Sigma)] for 48 hours. The final concentration of testosterone in the steroid-reduced media was less than 5 pM. After 48 hours of steroid depletion, cells were re-fed with fresh steroid-reduced medium with or without the indicated concentrations of DHT and/or bicalutamide (10 μM), and total cell numbers were assessed 7 days later.

Androgen Receptor (AR), sequence (P10275 whole entry T878A): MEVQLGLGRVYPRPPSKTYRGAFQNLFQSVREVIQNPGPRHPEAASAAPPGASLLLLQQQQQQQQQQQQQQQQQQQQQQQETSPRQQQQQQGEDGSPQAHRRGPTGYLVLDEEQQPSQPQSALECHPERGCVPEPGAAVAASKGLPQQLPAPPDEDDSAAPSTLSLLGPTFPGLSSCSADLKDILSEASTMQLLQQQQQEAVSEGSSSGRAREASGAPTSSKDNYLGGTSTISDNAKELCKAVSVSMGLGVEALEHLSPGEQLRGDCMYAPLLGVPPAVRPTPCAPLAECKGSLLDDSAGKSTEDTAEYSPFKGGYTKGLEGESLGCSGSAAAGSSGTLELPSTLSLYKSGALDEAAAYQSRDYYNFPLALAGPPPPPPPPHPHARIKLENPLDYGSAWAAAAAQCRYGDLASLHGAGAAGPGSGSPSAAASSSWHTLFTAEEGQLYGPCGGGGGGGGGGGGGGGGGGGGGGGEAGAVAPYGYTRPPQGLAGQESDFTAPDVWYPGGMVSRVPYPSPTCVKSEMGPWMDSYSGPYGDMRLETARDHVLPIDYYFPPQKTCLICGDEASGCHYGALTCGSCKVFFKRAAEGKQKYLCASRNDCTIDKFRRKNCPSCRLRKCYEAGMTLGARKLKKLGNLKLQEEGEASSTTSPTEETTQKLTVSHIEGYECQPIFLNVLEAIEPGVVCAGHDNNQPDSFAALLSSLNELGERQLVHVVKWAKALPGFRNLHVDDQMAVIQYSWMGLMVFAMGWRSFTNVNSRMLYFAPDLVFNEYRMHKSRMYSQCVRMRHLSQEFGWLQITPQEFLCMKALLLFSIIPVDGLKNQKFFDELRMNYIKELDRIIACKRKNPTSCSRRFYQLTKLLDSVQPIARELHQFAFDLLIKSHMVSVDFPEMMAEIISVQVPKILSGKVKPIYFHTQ

Structure (SMILES)	activation of luciferase activity (MMTV-luc) (Androgen Receptor (AR); LNCaP vector controls, R1881 10^−8 M) [fold]	AR activation (MMTV-luc) (Androgen Receptor (AR); ebp1 transfectants)	stimulation of growth as compared to no DHT (LNCaP cells; Ebp1 transfectants) [%]	stimulation of growth as compared to no DHT (LNCaP cells; LNCaP vector controls, maximal) [%]
C[C@]1(O)CC[C@H]2[C@@H]3CCC4=CC(=O)CCC4=C3C=C[C@@]21C [R1881]	20	neither R1881 nor cyproterone acetate nor the combination thereof stimulated AR activation	–	–
C[C@]12CCC(=O)C[C@@H]1CC[C@@H]1[C@@H]2CC[C@]2(C)[C@@H](O)CC[C@@H]12 [DHT, dihydrotestosterone]	–	–	35	250
